Like-named read-outs stand apart in the source and are kept apart here.
Legend:
[1] = DPPH radical scavenging (antioxidant) assay; format: biochemical; conditions: Table 10; mean ± standard deviation; 30 min, 515 nm; read-out: IC50 (μM), DPPH radical scavenging
Protocol: The DPPH radical scavenging activity of ascorbic acid (vitamin C) and the synthetic commercial antioxidant, butylated hydroxytoluene (BHT) are also assayed as positive controls (see Table 10). […] Absorbance is determined after 30 min at 515 nm, and the scavenging capacity (SC) is calculated as SC %=[(A0−A1/A0)]×100, where A0 is the absorbance of the reagent blank and A1 is the absorbance of the test samples. The control contained all reagents except the compounds, and all tests are performed in triplicate.
Absorbance is determined after 30 min at 515 nm, and the scavenging capacity (SC) is calculated as SC %=[(A0−A1/A0)]×100 where A0 is the absorbance of the reagent blank, and A1 is the absorbance with test samples. The control contained all reagents except the compounds and all tests are performed in triplicate.

[2] = system: HCT-116 (human colon carcinoma); assay: MTS cytotoxicity / antiproliferative assay; format: cell-based; conditions: for HCT-116 48 h IC50 / HCT-116 72 h IC50: ginnalins
Protocol: (§1) Cell lines included three human colon cancer cells: HT-29 (human colon adenocarcinoma), HCT116 (human colon carcinoma) and Caco-2 (human epithelial colorectal adenocarcinoma). In addition, normal human colon cells are included: CCD-^18Co (human colon fibroblasts). All cell lines are obtained from the American Type Culture Collection (ATCC, Rockville, Md., USA) and maintained at the University of Rhode Island.
(§2) The assay is carried out to measure the IC50 values for samples. […] Test samples and a positive control, etoposide 4 mg/mL (Sigma), are solubilized in DMSO by sonication. […] Control wells are also included on all plates. […] Each point on the curve is […]. Data (see tables 6 to 9) are expressed as mean±SE for three replications on each cell line.

[3] = system: HT-29 (human colon adenocarcinoma); assay: MTS cytotoxicity / antiproliferative assay; format: cell-based; conditions: for HT-29 48 h IC50 / HT-29 72 h IC50: ginnalins
Protocol: as §1, §2

[4] = system: Caco-2 (human epithelial colorectal adenocarcinoma); assay: MTS cytotoxicity / antiproliferative assay; format: cell-based; conditions: for Caco-2 48 h IC50 / Caco-2 72 h IC50: ginnalins
Protocol: as §1, §2

[5] = system: CCD-18Co (normal human colon fibroblasts); assay: MTS cytotoxicity / antiproliferative assay; format: cell-based; conditions: 72 h; for CCD-18Co 72 h IC50: ginnalins
Protocol: as §1, §2

[6] = Homo sapiens, HCT-116, 48 h, read-out: Antiproliferative activity HCT-116 48 h (IC50), 48 h, pure isolated compounds
[7] = Homo sapiens, HCT-116, 48 h, read-out: HCT-116 48 h(IC50), Table 6 maple compounds, 48 h, unit inferred
[8] = Homo sapiens, HCT-116, 72 h, 72 h, pure isolated compounds, read-out: Antiproliferative activity HCT-116 72 h (IC50)
[9] = Homo sapiens, HCT-116, 72 h, 72 h, range given for the group, read-out: IC50 against HCT-116 cells at 72 h (activity ranking)
[10] = Homo sapiens, HCT-116, 72 h, Table 6 maple compounds, 72 h, unit inferred, read-out: HCT-116 72 h(IC50)
[11] = Homo sapiens, HT-29, 48 h, read-out: Antiproliferative activity HT-29 48 h (IC50), 48 h, pure isolated compounds
[12] = Homo sapiens, HT-29, 48 h, read-out: HT-29 48 h(IC50), Table 6 maple compounds, 48 h, unit inferred
[13] = Homo sapiens, HT-29, 72 h, 72 h, pure isolated compounds, read-out: Antiproliferative activity HT-29 72 h (IC50)
[14] = Homo sapiens, HT-29, 72 h, Table 6 maple compounds, 72 h, unit inferred, read-out: HT-29 72 h(IC50)
[15] = Homo sapiens, Caco-2, 48 h, read-out: Antiproliferative activity Caco-2 48 h (IC50), 48 h, pure isolated compounds
[16] = Homo sapiens, Caco-2, 48 h, read-out: Caco-2 48 h(IC50), Table 6 maple compounds, 48 h, unit inferred
[17] = Homo sapiens, Caco-2, 72 h, 72 h, pure isolated compounds, read-out: Antiproliferative activity Caco-2 72 h (IC50)
[18] = Homo sapiens, Caco-2, 72 h, Table 6 maple compounds, 72 h, unit inferred, read-out: Caco-2 72 h(IC50)
[19] = Homo sapiens, HCT-116, 72 h, 72 h, range given for the group, unit inferred, read-out: IC50 against HCT-116 cells at 72 h (moderately active group)
[20] = Homo sapiens, CCD-18Co, pure isolated compounds, read-out: Antiproliferative activity CCD-8Co 72 h (IC50)
[21] = Homo sapiens, CCD-18Co, Table 6 maple compounds, unit inferred, read-out: CCD-18Co 72 h(IC50)

Structure (SMILES) | IC50 [1] [µM] | IC50 [2, 6] [µM] | IC50 [2, 7] [µM] | IC50 [2, 8] [µM] | IC50 [2, 9] [µM] | IC50 [2, 10] [µM] | IC50 [3, 11] [µM] | IC50 [3, 12] [µM] | IC50 [3, 13] [µM] | IC50 [3, 14] [µM] | IC50 [4, 15] [µM] | IC50 [4, 17] [µM] | IC50 [4, 18] [µM] | IC50 [5, 20] [µM] | further results
COc1cc(C(=O)C(O)CO)ccc1O (stereo not drawn) [compound 22, C-veratroylglycol] | 138 ± 28.2 | 82.9 ± 2.1 | 82.9 | 66.7 ± 1.5 | 42 to 67 | 66.7 | 96 ± 1.5 | 96 | 88.6 ± 1.3 | 88.6 | 101 ± 1.6 | 90.8 ± 1 | 90.8 | – | IC50 [4, 16]: 101 µM
COc1cc2ccc(=O)oc2c(O)c1O [compound 9, fraxetin] | 479 ± 42.1 | 112 ± 1.8 | 112 | 84.5 ± 1.6 | – | 84.5 | 101 ± 1.2 | 101 | 93.4 ± 2.6 | 93.4 | – | 101 ± 1.3 | 101 | – | IC50 [2, 19]: 75 to 85 µM
COc1cc(CC(CO)C(CO)Cc2ccc(O)c(OC)c2)ccc1O (stereo not drawn) [compound 2, secoisolariciresinol] | 1540.9 ± 0.5 | 78 ± 2.3 | – | 59.1 ± 1.5 | 42 to 67 | – | 88.7 ± 2.2 | – | 68.2 ± 1.4 | – | 85 ± 3.8 | 70.9 ± 2.3 | – | 99.6 ± 4.9 | –
O=C(OC[C@H]1OC[C@H](O)[C@@H](O)[C@@H]1O)c1cc(O)c(O)c(O)c1 [compound 71, ginnalin-B] | – | – | – | – | – | – | – | – | – | – | – | – | – | – | HCT-116 48 h IC50 ([2]; 48 h): 25.1 ± 1.8 µg/mL; HCT-116 72 h IC50 ([2]; 72 h): 20.0 ± 2.0 µg/mL; IC50 ([2]; Table 6 maple compounds, 72 h, unit inferred, read-out: HCT-116 72 h(IC50)): 50.9 µM; IC50 ([2]; read-out: HCT-116 48 h(IC50), Table 6 maple compounds, 48 h, unit inferred): 66.8 µM; HT-29 48 h IC50 ([3]; 48 h): 36.2 ± 1.5 µg/mL; HT-29 72 h IC50 ([3]; 72 h): 27.3 ± 0.6 µg/mL; IC50 ([3]; Table 6 maple compounds, 72 h, unit inferred, read-out: HT-29 72 h(IC50)): 86.5 µM; IC50 ([3]; read-out: HT-29 48 h(IC50), Table 6 maple compounds, 48 h, unit inferred): 98.9 µM; CCD-18Co 72 h IC50 [5]: 47.1 ± 5.3 µg/mL; IC50 ([5]; Table 6 maple compounds, unit inferred, read-out: CCD-18Co 72 h(IC50)): 107 µM; Caco-2 48 h IC50 ([4]; 48 h): 31.1 ± 1.9 µg/mL; Caco-2 72 h IC50 ([4]; 72 h): 22.6 ± 1.9 µg/mL; IC50 ([4]; Table 6 maple compounds, 72 h, unit inferred, read-out: Caco-2 72 h(IC50)): 71.6 µM; IC50 ([4]; read-out: Caco-2 48 h(IC50), Table 6 maple compounds, 48 h, unit inferred): 98.7 µM
Oc1ccccc1O [compound 23, catechol] | – | 86 ± 2.4 | – | 63 ± 1.3 | 42 to 67 | – | 99.4 ± 2.1 | – | 70.3 ± 2 | – | 71.5 ± 2.3 | 64.1 ± 2.5 | – | 115 ± 2.7 | –
COc1cc(/C=C/CO)cc(OC)c1O [compound 20, syringenin] | 322 ± 31.9 | 123.5 ± 1.1 | 124 | 108 ± 1.5 | 94 to 110 | 108 | 126 ± 3 | 126 | 113 ± 1.5 | 113 | – | – | – | – | –
COc1cc(C2Oc3c(OC)cc(CCCO)cc3C2CO)cc(OC)c1O (stereo not drawn) [compound 4] | – | – | 78 | – | – | 59.1 | – | 88.7 | – | 68.2 | – | – | 70.9 | – | IC50 [5, 21]: 99.6 µM; IC50 [4, 16]: 85 µM
O=C(OC[C@H]1OC[C@H](OC(=O)c2cc(O)c(O)c(O)c2)[C@@H](O)[C@@H]1O)c1cc(O)c(O)c(O)c1 [Ginnalin A] | – | – | – | – | – | – | – | – | – | – | – | – | – | – | HCT-116 48 h IC50 ([2]; 48 h): 21.5 ± 1.6 µg/mL; HCT-116 72 h IC50 ([2]; 72 h): 16.3 ± 2.1 µg/mL; HT-29 48 h IC50 ([3]; 48 h): 31.0 ± 2.6 µg/mL; HT-29 72 h IC50 ([3]; 72 h): 24.1 ± 1.3 µg/mL; CCD-18Co 72 h IC50 [5]: 46.6 ± 3.6 µg/mL; Caco-2 48 h IC50 ([4]; 48 h): 28.8 ± 1.8 µg/mL; Caco-2 72 h IC50 ([4]; 72 h): 21.7 ± 1.0 µg/mL
COc1cc(C=O)ccc1O [compound 15, vanillin] | 1810 ± 266 | 120.3 ± 1 | 120 | 110 ± 1.7 | 94 to 110 | 110 | – | – | 114 ± 1.5 | 114 | – | – | – | – | –
COc1cc(C(CO)C(c2ccc(O)c(OC)c2)c2ccc(O)c(OC)c2)ccc1O (stereo not drawn) [compound 54, Quebecol] | – | 95.3 ± 0.6 | – | 76.2 ± 1.2 | – | – | 103 ± 1.7 | – | 86.1 ± 0.8 | – | 98.2 ± 1.5 | 78.5 ± 1.4 | – | 120 ± 1.5 | IC50 [2, 19]: 75 to 85 µM
O=Cc1ccc(O)c(O)c1 [compound 14, catechaldehyde] | – | 63.3 ± 1.3 | 63.3 | 52.9 ± 1.4 | 42 to 67 | 52.9 | 71.6 ± 1.5 | 71.6 | 63.9 ± 1.6 | 63.9 | 73.2 ± 1.3 | 58.9 ± 1.9 | 58.9 | 126 ± 4.6 | IC50 [5, 21]: 126 µM; IC50 [4, 16]: 73.2 µM
OCCc1ccc(O)cc1 [compound 50, tyrosol] | – | 115 ± 1.5 | – | 94.3 ± 1.8 | 94 to 110 | – | 128 ± 2.3 | – | 114 ± 1.8 | – | 112 ± 1.9 | 100 ± 2.6 | – | 145 ± 4.1 | –
O=C(CO)c1ccc(O)c(O)c1 [compound 11, 2-hydroxy-3′,4′-dihydroxyacetophenone] | 422.9 ± 2.4 | – | – | – | – | – | – | – | – | – | – | – | 86 | – | IC50 [4, 16]: 92.5 µM
COc1ccc(C2OC(=O)C(O)(Cc3ccc(OC4OC(C)C(O)C(O)C4O)c(OC)c3)C2CO)cc1OC [compound 7, [3-[4-[(6-deoxy-α-L-mannopyranosyl)oxy]-3-methoxyphenyl]methyl]-5-(3,4-dimethoxyphenyl)dihydro-3-hydroxy-4-(hydroxymethyl)-2(3H)-furanone] | 740.2 ± 3.4 | – | – | – | – | 103 | – | – | – | 98.2 | – | – | 96.8 | – | –
COc1cc(/C=C/c2ccc(O)c(OC)c2)ccc1O [compound 10, (E)-3,3′-dimethoxy-4,4′-dihydroxystilbene] | 578.5 ± 1.3 | – | – | – | – | – | – | – | – | – | – | – | 93.1 | – | –

From patent publication US20130267474A1, “NOVEL PHYTOCHEMICALS FROM EXTRACTS OF MAPLE SYRUPS AND MAPLE TREES AND USES THEREOF” (UNIVERSITY OF RHODE ISLAND, priority 2010, published 2013)
